# Laboratory results published in publication PMC7580722, “Design of new disubstituted imidazo[1,2-b]pyridazine derivatives as selective Haspin inhibitors. Synthesis, binding mode and anticancer biological evaluation” (Journal of Enzyme Inhibition and Medicinal Chemistry, 2020).
# Like-named read-outs stand apart in the source and are kept apart here.
# Key:
# [1] = system: Haspin; design: method as in PMID 23071153, PMID 23071152, PMID 21804608, PMID 19734450, PMID 18978305; settings: Figure 1, known Haspin inhibitors; cited from earlier work
# [2] = molecular target: T1, HsAurora B (Homo sapiens, UniProt Q96GD4); assay: Aurora B kinase assay; format: biochemical
# T1 construct: purchased SignalChem
# T1 sequence (Q96GD4 whole entry): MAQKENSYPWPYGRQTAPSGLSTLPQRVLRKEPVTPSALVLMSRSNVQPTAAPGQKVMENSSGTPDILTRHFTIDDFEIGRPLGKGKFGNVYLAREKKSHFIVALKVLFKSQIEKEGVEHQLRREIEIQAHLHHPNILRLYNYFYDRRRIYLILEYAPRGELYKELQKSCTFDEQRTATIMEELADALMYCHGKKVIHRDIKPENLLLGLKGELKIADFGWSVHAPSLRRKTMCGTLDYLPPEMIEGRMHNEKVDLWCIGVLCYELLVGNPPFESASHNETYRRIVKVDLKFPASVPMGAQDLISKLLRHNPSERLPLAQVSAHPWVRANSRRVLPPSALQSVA
# Procedure: (§1) Values are IC50 expressed in µM and calculated from dose–response curves (each point on the curves was performed in triplicate). Selectivity indexes (SI; in brackets) are calculated as follows: SI = IC50 kinase X/IC50 Haspin. ND: not determined. *IC50 values obtained using the ADP-Glo methodology (see Experimental section, Supplementary Material). […]
# Recombinant protein kinases were expressed and purified from E. coli (HsHaspin kinase domain aa470-798, HsCdk5/p25, RnDYRK1A kinase domain aa1-499, HsPIM1, MmCLK1) or baculovirus/Sf9 cells (HsCdk2/Cyclin A, HsCdk9/Cyclin T). Native SscCK1δ /ε and SscGSK3α/β were purified from pig brain whereas HsPlk1, HsCdk1 and HsAurora B were purchased from ProQinase and SignalChem respectively. Kinase assays were performed in specific buffers and substrates for each kinase tested in the presence of 15 µM [γ-33P] ATP (3,000 Ci/mmol, 10 mCi/ml; PerkinElmer) in a final volume of 30 µl as previously reported 51. After 30 min incubation at 30°C, the reaction mix was spotted onto GE healthcare P81 phosphocellulose paper using a FilterMate Harvester (PerkinElmer), and the filter was extensively washed with a 1% phosphoric acid solution. The wet filter-bound radioactivity was determined in the presence of 20 µl scintillation fluid (GE healthcare) with a TopCount® Scintillation and Luminescence Counter (PerkinElmer). IC50 values were calculated from dose-response curves […]
# (§2) Kinase activities using the ADP-Glo methodology (ADP-Glo Kinase Assay; Promega) were assayed according to the assay described in Nguyen et al. 52 and Ibrahim et al. 53. […]
# [3] = molecular target: T2, HsHaspin (Homo sapiens, UniProt Q8TF76); assay: Recombinant Haspin kinase assay ([γ-33P]ATP, 15 µM ATP; some values ADP-Glo); format: biochemical; settings: for IC50 / Haspin inhibitory activity (in words): recombinant HsHaspin; for IC50: in vitro
# T2 construct: aa470-798; made in house; host or cells: E. coli
# T2 sequence (Q8TF76 470-798): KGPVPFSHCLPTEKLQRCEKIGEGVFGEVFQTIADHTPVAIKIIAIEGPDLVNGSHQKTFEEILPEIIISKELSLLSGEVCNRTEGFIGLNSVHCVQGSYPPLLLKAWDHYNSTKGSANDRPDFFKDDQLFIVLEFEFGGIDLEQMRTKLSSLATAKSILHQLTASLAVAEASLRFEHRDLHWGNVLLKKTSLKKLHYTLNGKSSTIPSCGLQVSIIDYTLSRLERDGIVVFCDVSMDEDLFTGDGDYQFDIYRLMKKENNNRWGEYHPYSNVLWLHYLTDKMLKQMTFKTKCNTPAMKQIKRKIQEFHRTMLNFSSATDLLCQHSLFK
# Procedure: as §1
# (§3) A, HsCdk9/Cyclin T). Native SscCK1δ /ε and SscGSK3α/β were purified from pig brain whereas HsPlk1, HsCdk1 and HsAurora B were purchased from ProQinase and SignalChem respectively. Kinase assays were performed in […]
# (§4) mCi/ml; PerkinElmer) in a final volume of 30 µl as previously reported 51. After 30 min incubation at 30°C, the reaction mix was spotted onto GE healthcare P81 phosphocellulose paper using a FilterMate Harvester (PerkinElmer), and the filter was extensively washed with a 1% phosphoric acid solution. The wet filter-bound radioactivity was determined in the presence of 20 µl scintillation fluid (GE healthcare) with a TopCount® Scintillation and Luminescence Counter (PerkinElmer). IC50 values were calculated from dose-response curves […]
# as §2
# [4] = system: U-2 OS cells; assay: Scratch wound cell migration assay (IncuCyte); format: cell-based, human; settings: 0.6 µM, 0.5% FBS, normalised against DMSO control (100%)
# [5] = system: HBL100 spheroids; assay: Spheroid (3D) viability, CellTiter-Glo; format: cell-based, human; settings: Figure 4(A)
# [6] = system: U-2 OS; assay: Cell viability, monolayer (2D), MTS assay; format: cell-based; settings: Homo sapiens, U2OS, 48 h
# [7] = system: U-2 OS spheroids; assay: Spheroid (3D) viability, CellTiter-Glo; format: cell-based, human; settings: 5 µM; for viability at 5 µM: Homo sapiens, U2OS
# [8] = molecular target: T3, HsPLK1 (Homo sapiens, UniProt P53350); assay: PLK1 kinase assay; format: biochemical; settings: Table 4
# T3 construct: purchased ProQinase
# T3 sequence (P53350 whole entry): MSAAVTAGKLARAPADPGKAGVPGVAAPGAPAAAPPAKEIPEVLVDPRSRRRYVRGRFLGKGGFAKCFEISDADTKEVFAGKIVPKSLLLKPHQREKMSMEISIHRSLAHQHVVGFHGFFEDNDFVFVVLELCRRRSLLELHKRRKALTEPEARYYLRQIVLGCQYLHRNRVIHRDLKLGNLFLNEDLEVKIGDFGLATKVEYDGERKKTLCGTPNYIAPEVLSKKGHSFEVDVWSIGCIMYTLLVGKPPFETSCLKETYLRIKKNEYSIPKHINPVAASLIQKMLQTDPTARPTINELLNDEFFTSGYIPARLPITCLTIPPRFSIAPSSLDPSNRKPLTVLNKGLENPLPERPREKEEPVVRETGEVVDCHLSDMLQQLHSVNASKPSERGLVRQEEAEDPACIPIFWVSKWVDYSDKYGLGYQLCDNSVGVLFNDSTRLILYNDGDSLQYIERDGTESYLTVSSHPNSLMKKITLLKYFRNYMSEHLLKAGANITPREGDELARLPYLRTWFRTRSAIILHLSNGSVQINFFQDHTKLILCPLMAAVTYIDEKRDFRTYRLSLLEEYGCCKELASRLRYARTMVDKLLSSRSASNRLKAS
# Procedure: . We therefore tested our compounds on two obvious candidates, HsCDK1 and HsPLK1 (Polo-like_kinase 1) both required for mitotic entry[50] (Table 4).
# (§5) Values are IC50 expressed in µM and calculated from dose–response curves (each point from the curves was performed in duplicate). NR: not relevant. […]
# (§6) Recombinant protein kinases were expressed and purified from E. coli (HsHaspin kinase domain aa470-798, HsCdk5/p25, RnDYRK1A kinase domain aa1-499, HsPIM1, MmCLK1) or baculovirus/Sf9 cells (HsCdk2/Cyclin A, HsCdk9/Cyclin T). Native SscCK1δ /ε and SscGSK3α/β were purified from pig brain whereas HsPlk1, HsCdk1 and HsAurora B were purchased from ProQinase and SignalChem respectively. Kinase assays were performed in specific buffers and substrates for each kinase tested in the presence of 15 µM [γ-33P] ATP (3,000 Ci/mmol, 10 mCi/ml; PerkinElmer) in a final volume of 30 µl as previously reported 51. After 30 min incubation at 30°C, the reaction mix was spotted onto GE healthcare P81 phosphocellulose paper using a FilterMate Harvester (PerkinElmer), and the filter was extensively washed with a 1% phosphoric acid solution. The wet filter-bound radioactivity was determined in the presence of 20 µl scintillation fluid (GE healthcare) with a TopCount® Scintillation and Luminescence Counter (PerkinElmer). IC50 values were calculated from dose-response curves
# [9] = molecular target: T4, HsCDK1 (Homo sapiens, UniProt P06493); assay: CDK1 kinase assay; format: biochemical; settings: for SI CDK1/Haspin: SI = IC50 CDK1/IC50 Haspin; for IC50: Table 4, read-out: IC50 HsCDK1
# T4 construct: purchased ProQinase
# T4 sequence (P06493 whole entry): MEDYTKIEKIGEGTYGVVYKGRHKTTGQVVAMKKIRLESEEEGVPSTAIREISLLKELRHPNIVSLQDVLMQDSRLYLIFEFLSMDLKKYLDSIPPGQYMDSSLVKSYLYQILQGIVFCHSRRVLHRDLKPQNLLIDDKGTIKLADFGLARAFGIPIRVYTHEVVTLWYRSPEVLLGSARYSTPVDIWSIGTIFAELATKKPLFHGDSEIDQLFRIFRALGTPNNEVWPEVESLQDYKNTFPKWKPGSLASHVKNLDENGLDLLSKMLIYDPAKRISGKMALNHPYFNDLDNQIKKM
# T4 sequence (P14635 whole entry partner): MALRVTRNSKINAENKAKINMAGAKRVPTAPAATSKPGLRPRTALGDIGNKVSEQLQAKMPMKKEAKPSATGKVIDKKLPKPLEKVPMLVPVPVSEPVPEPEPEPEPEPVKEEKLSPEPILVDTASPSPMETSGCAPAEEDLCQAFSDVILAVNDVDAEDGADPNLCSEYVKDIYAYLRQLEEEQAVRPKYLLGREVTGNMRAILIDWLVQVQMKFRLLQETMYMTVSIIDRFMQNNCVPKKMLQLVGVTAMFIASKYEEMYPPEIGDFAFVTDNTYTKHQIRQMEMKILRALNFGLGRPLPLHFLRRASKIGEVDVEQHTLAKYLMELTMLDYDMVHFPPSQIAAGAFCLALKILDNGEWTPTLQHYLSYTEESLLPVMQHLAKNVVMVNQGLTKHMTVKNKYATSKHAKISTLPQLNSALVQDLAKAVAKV
# Procedure: We therefore tested our compounds on two obvious candidates, HsCDK1 and HsPLK1 (Polo-like_kinase 1) both required for mitotic entry[50]
# as §5, §6
# [10] = system: HCT116 spheroids; assay: Spheroid (3D) viability, CellTiter-Glo; format: cell-based, human; settings: 5 µM, 10 days, Figure 4(A)
# [11] = system: Haspin activity (H3T3ph) in U-2 OS cells; assay: In-cell Haspin activity, H3T3ph immunofluorescence; format: cell-based, human; settings: 24 h; for H3T3ph signal remaining in prometaphase cells (% of ctrl): 0.5 µM
# [12] = system: SH-SY5Y; assay: Cell viability, monolayer (2D), MTS assay; format: cell-based; settings: Homo sapiens, 48 h
# [13] = system: HBL100; assay: Cell viability, monolayer (2D), MTS assay; format: cell-based; settings: Homo sapiens, HBL-100, 48 h
# [14] = system: RPE-1; assay: Cell viability, monolayer (2D), MTS assay; format: cell-based; settings: Homo sapiens, 48 h
# [15] = system: U-2 OS cells; assay: Cell cycle analysis by flow cytometry (propidium iodide); settings: 2.5 µM, 24 h, U-2 OS
# [16] = system: HCT116; assay: Cell viability, monolayer (2D), MTS assay; format: cell-based; settings: Homo sapiens, HCT-116, 48 h
# [17] = molecular target: T5, HsCdk2/Cyclin A (Homo sapiens, UniProt P24941); assay: CDK2 kinase assay; format: biochemical; settings: read-out: IC50 CDK2
# T5 construct: made in house; host or cells: baculovirus/Sf9 cells
# Procedure: as §1, §3, §4, §2
structure (smiles),measurement,setting,value
c1cc2[nH]ncc2cc1-c1cnc2ccc(NC3CCCCC3)nn12 [Compound 10],melting point,,240 to 242 °C
"CCCNc1ccc2ncc(-c3cnc(N)nc3)n2n1 [Compound 28, 3-(2-Aminopyrimidin-5-yl)-6-(propylamino)imidazo[1,2-b]pyridazine]",Aurora B inhibition at 10 µM (in words),[2],did not affect this enzyme at 10 µM
c1cc2[nH]ncc2cc1-c1cnc2ccc(OC[C@@H]3COCCN3)nn12 [Compound 23],IC50,[3],0.025 µM
c1cc2[nH]ncc2cc1-c1cnc2ccc(N3CCCCC3)nn12 [Compound 11],melting point,,231 to 233 °C
COc1ccc2c3ccnc(C(F)(F)F)c3n(CCCCN)c2c1 [LDN-211898],IC50,[1],0.1 µM
c1cc2[nH]ncc2cc1-c1cnc2ccc(OCC3CCCN3)nn12 (stereo not shown) [Compound 25],Haspin inhibitory activity (in words),[3],very active
c1cc2[nH]ncc2cc1-c1cnc2ccc(OCC3CCCN3)nn12 (stereo not shown) [Compound 26],Haspin inhibitory activity (in words),[3],very active
CCOc1ccc2ncc(-c3ccc4[nH]ncc4c3)n2n1 [Compound 14],normalised wound closure after 24 h,[4],73%
same,HBL100 spheroid viability,"[5]; 5 µM, 10 days",remained mostly unresponsive
same,viability at 5 µM,"[5]; Homo sapiens, HBL-100, 48 h, read-out: HBL-100 spheroid viability (% of DMSO control)",73%
same,EC50,[6],2.8 µM
same,melting point,,205 to 207 °C
same,viability at 5 µM,"[7]; 48 h, 2 days, Figure 4(B), read-out: U-2 OS spheroid remaining viability",6.9%
same,viability at 5 µM,"[7]; 240 h, 10 days, Figure 4(A), read-out: U-2 OS spheroid viability (% of DMSO control)",5%
same,viability at 5 µM,"[7]; 48 h, Figure 4(A), read-out: U-2 OS spheroid viability (% of DMSO control)",33%
same,IC50,[8],> 10 µM
same,SI CDK1/Haspin,[9],11.5
same,IC50,[9],0.795 µM
same,HCT116 spheroid viability,[10],remained mostly unresponsive
same,H3T3ph signal remaining in prometaphase cells (% of ctrl),[11],11.9%
same,EC50,[12],> 10 µM
same,EC50,[13],9.5 µM
same,Aurora B inhibition (in words),[2],did not inhibit Aurora B kinase
same,EC50,[14],3.7 µM
same,cells in G2/M phase (% of cell total population),[15]; DMSO control 12.8%,24.4%
same,cells in S phase (% of cell total population),[15]; DMSO control 51.9%,45.2%
same,EC50,[16],1.7 µM
same,average SI,[3]; average selectivity index over the protein kinases tested vs Haspin,23.6
same,IC50,[3],0.069 µM
c1cc2[nH]ncc2cc1-c1cnc2ccc(OC[C@H]3COCCN3)nn12 [Compound 24],IC50,[3],0.02 µM
"CCCNc1ccc2ncc(-c3cccc4ccccc34)n2n1 [Compound 29, 3-(Naphthalen-1-yl)-N-propylimidazo[1,2-b]pyridazin-6-amine]",normalised wound closure after 24 h,[4],around 100%
same,EC50,[6],> 10 µM
same,IC50,[8],> 10 µM
same,IC50,[9],> 10 µM
same,EC50,[12],> 10 µM
same,EC50,[13],> 10 µM
same,EC50,[14],> 10 µM
same,EC50,[16],> 10 µM
c1cc2[nH]ncc2cc1-c1cnc2ccc(NC3CCCC3)nn12 [Compound 9],melting point,,195 to 197 °C
same,IC50,[3],0.031 µM
"c1cnn2c(-c3ccc4[nH]ncc4c3)cnc2c1 [Compound 30, 3-(1H-Indazol-5-yl)imidazo[1,2-b]pyridazine]",Aurora B inhibition at 10 µM (in words),[2],did not affect this enzyme at 10 µM
same,Haspin inhibitory activity (in words),[3],lost their activity for Haspin
CN1CCC(CNc2ccc3ncc(-c4cccc(OC(F)(F)F)c4)n3n2)CC1 [SGI-1776],IC50,[1],0.034 µM
COc1ccc2c(c1)[nH]c1c(C)nccc12 [Harmine],IC50,[1],0.59 µM
CCCOc1ccc2ncc(-c3ccc4[nH]ncc4c3)n2n1 [Compound 13],melting point,,198 to 200 °C
c1cc2[nH]ncc2cc1-c1cnc2ccc(OC[C@H]3CNCCO3)nn12 [Compound 22],normalised wound closure after 24 h,[4],around 100%
same,EC50,[6],8.6 µM
same,U-2 OS spheroid remaining viability,"[7]; 2 days, Figure 4(B)",no effects
same,IC50,[8],> 10 µM
same,SI CDK1/Haspin,[9],239
same,IC50,[9],2.87 µM
same,H3T3ph signal remaining in prometaphase cells (% of ctrl),[11],10.7%
same,inhibition at 0.05 µM,"[11]; Homo sapiens, U2OS, 0.05 µM, read-out: inhibition of cellular Haspin activity",> 80%
same,EC50,[12],> 10 µM
same,EC50,[13],> 10 µM
same,IC50,[17],5.3 µM
same,EC50,[14],6 µM
same,EC50,[16],> 10 µM
same,IC50,[3],0.012 µM
